# Reference: patent US7820722B2, “Permeation enhancers” (Merrion Research III Limited, priority 2001, dated 2010)
# Strand notation (5' to 3'): a small letter for the sugar, then the base; units joined by * are phosphorothioate-linked, units joined directly phosphodiester-linked; [ ] holds rarer units or linkages, { } end groups; capitals alone tell only the bases. e = 2'-O-(2-methoxyethyl) (MOE); [5mC] = 5-methylcytosine; d = 2'-deoxy (DNA)
# Experiments:
# [1] = Solubility of the enhancer system in phosphate buffer saline
# [2] = Bioavailability of antisense oligonucleotide after intra-jejunal dosing through a catheter, plasma level by anion-exchange chromatography (Example 3); assay type: in vivo, male rhesus monkeys; conditions: rhesus monkey, po
# Excerpt: The compositions were compared by administering them in solution form through a catheter to test subjects. A jejunal catheter is surgically implanted in six male rhesus monkeys (3-5 years, 3-5 Kg) under anesthesia. The catheters are attached to a subcutaneous access port to allow dosing through the port into the jejunum. The animals are allowed to recover at least 7 days prior to dosing. […] The antisense oligonucleotide is detected by anion-exchange chromatography. The formulations and the measurements of bioavailability, Tmax and plasma peak of antisense oligonucleotide after administration of formulations are described in the chart below.
Solubility in phosphate buffer saline [1],Molecule,permeability without any permeation enhancer systems [2]
not fully soluble,CCCCCCCCCCC(CCCCCCCC)C(=O)[O-].[Na+] (centres unmarked) [sodium 2-n-octyl-dodecanoate],–
–,"antisense oligonucleotide: 5-10-5 MOE gapmer phosphorothioate, 5-methylcytosines, targets human TNF-α; GCTGATTAGAGAGAGGTCCC (antisense eG*e[5mC]*eT*eG*eA*dT*dT*dA*dG*dA*dG*dA*dG*dA*dG*eG*eT*e[5mC]*e[5mC]*e[5mC])",poor permeability
